Values quoted from earlier work as cited in patent publication US20070253988A1, “Methods for peeling skin” (L'OREAL, priority 2006, published 2007).

conditions: approximately 20° C., concentration of 0.1 M

Compared with `O=S(=O)(O)CCN(CCO)CCO` [N,N-bis[2-hydroxyethyl]-2-aminoethanesulfonic acid], `O=S(=O)(O)CCN1CCN(CCO)CC1` [N-2-hydroxyethylpiperazine-N′-2-ethanesulfonic acid] is higher in pKa: 7.17 for the first, 7.55 for the second.

`NC(=O)CNCCS(=O)(=O)O` [N-(2-acetamido)-2-aminoethanesulfonic acid] and `O=S(=O)(O)CCN1CCN(CCS(=O)(=O)O)CC1` [piperazine-N,N′-bis[2-ethanesulfonic]acid] are within 0.2 log units of each other in pKa: 6.88 for the first, 6.82 for the second.
